Where two headings read alike, the source gives them in different places. Values belong to the molecule of their own block, whether it stands above or below them.
Target: T1, BRM (Homo sapiens, UniProt P51531)
T1 construct: In-Cell Western Screen of BRM Degradation in SW1573 Cells; endogenous in cells; host or cells: SW1573
Experiment: In-cell Western screen of BRM degradation in SW1573 cells (Dmax and DC50)
Type: cell-based
How it was run: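 Overnight compound treatment (18-20 h, final DMSO 0.1%) of SW1573 cells in DMEM with 10% FBS precedes fixation and in-cell Western staining with 800/680 nm dye-labelled secondaries. Plate images give DC50 and maximal degradation.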

[1] = BRM degradation, SW1573 cells, read-out: DC50
[2] = BRM degradation, SW1573 cells, Table 2D, read-out: **Dmax (%) (% degraded)
[3] = BRM degradation, SW1573 cells, Table 2D, read-out: *DC50
[4] = BRM degradation, SW1573 cells, tested at the top concentration of between 0.3 and 10 μM, read-out: Dmax (%) (% degraded)

T1 sequence (P51531 whole entry): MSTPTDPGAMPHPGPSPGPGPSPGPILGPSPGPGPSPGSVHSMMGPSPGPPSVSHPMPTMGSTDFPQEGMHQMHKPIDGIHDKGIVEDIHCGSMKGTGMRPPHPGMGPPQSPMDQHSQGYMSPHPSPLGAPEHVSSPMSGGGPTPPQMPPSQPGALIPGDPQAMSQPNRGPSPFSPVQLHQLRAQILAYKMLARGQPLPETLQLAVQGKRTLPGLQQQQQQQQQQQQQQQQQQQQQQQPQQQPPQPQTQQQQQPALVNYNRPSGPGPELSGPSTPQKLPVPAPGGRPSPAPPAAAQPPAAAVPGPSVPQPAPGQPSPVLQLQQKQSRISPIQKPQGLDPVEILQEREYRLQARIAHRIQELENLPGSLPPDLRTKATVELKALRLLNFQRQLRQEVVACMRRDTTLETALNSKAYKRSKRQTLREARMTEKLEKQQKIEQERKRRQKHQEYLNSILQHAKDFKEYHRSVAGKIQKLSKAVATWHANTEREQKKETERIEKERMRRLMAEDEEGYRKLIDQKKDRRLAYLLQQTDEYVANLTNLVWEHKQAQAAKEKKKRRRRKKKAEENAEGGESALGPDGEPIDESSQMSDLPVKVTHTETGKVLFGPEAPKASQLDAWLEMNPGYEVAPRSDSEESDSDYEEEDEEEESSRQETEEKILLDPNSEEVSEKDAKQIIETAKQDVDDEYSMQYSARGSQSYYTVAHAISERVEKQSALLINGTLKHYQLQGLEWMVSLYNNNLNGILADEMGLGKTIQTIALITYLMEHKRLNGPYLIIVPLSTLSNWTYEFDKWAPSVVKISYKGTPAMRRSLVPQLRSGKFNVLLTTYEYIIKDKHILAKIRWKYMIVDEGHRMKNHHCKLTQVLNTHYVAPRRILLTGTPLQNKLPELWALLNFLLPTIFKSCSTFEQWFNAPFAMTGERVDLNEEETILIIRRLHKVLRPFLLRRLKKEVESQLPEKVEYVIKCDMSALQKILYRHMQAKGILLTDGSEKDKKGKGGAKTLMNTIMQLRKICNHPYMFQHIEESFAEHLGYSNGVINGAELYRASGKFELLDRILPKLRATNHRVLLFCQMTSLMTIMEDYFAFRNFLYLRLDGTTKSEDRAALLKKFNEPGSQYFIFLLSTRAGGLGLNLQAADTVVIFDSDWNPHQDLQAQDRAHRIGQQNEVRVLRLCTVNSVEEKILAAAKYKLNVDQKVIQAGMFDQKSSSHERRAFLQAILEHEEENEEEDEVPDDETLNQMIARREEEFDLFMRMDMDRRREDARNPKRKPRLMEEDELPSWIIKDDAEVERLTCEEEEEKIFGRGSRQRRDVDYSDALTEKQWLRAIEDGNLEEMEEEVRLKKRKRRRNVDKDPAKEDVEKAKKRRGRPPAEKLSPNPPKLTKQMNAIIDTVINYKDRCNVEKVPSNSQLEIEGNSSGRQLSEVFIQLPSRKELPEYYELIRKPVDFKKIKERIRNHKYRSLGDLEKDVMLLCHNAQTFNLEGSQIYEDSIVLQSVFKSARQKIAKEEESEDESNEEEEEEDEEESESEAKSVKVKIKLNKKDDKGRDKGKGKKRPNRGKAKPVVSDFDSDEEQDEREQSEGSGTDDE

SMILES: Cc1ncsc1-c1ccc([C@H](C)NC(=O)[C@@H]2C[C@@H](O)CN2C(=O)[C@H](c2cc(N3CCC(CN4CCC(O[C@H]5C[C@H](Oc6cc(N7C8CCC7CN(c7cc(-c9ccccc9O)nnc7N)C8)ccn6)C5)CC4)CC3)no2)C(C)C)cc1F [compound 651, (2S,4R)-1-((2S)-2-(3-(4-((4-((1r,3r)-3-((4-(3-(3-amino-6-(2-hydroxyphenyl)pyridazin-4-yl)-3,8-diazabicyclo[3.2.1]octan-8-yl)pyridin-2-yl)oxy)cyclobutoxy)piperidin-1-yl)methyl)piperidin-1-yl)isoxazol-5-yl)-3-methylbutanoyl)-N-((S)-1-(3-fluoro-4-(4-methylthiazol-5-yl)phenyl)ethyl)-4-hydroxypyrrolidine-2-carboxamide]
DC50 [1]: > 30 nM

SMILES: Cc1ncsc1-c1ccc([C@@H](CCCC(=O)O)NC(=O)[C@@H]2C[C@@H](O)CN2C(=O)C(c2cc(OCCN3CCC(O[C@H]4C[C@H](Oc5cc(N6C7CCC6CN(c6cc(-c8ccccc8O)nnc6N)C7)ccn5)C4)CC3)no2)C(C)C)cc1 (stereo partly drawn) [compound 686, (5R)-5-((2S,4R)-1-(2-(3-(2-(4-((1r,3r)-3-((4-(3-(3-amino-6-(2-hydroxyphenyl)pyridazin-4-yl)-3,8-diazabicyclo[3.2.1]octan-8-yl)pyridin-2-yl)oxy)cyclobutoxy)piperidin-1-yl)ethoxy)isoxazol-5-yl)-3-methylbutanoyl)-4-hydroxypyrrolidine-2-carboxamido)-5-(4-(4-methylthiazol-5-yl)phenyl)pentanoic acid]
DC50 [1]: > 30 nM

SMILES: Cc1ncsc1-c1ccc([C@H](C)NC(=O)[C@@H]2C[C@@H](O)CN2C(=O)[C@@H](c2cc(N3CC(COCCOc4cc(N5C6CCC5CN(c5cc(-c7ccccc7O)nnc5N)C6)ccn4)C3)no2)C(C)C)cc1 [compound 550, (2S,4R)-1-((2R)-2-(3-(3-((2-((4-(3-(3-amino-6-(2-hydroxyphenyl)pyridazin-4-yl)-3,8-diazabicyclo[3.2.1]octan-8-yl)pyridin-2-yl)oxy)ethoxy)methyl)azetidin-1-yl)isoxazol-5-yl)-3-methylbutanoyl)-4-hydroxy-N-((S)-1-(4-(4-methylthiazol-5-yl)phenyl)ethyl)pyrrolidine-2-carboxamide]
Dmax [2]: > 75%
DC50 [3]: < 2.5 nM

SMILES: Cc1ncsc1-c1ccc([C@H](COCC(C)C)NC(=O)[C@@H]2C[C@@H](O)CN2C(=O)[C@@H](c2cc(OCCN3CCN(CCOc4cc(N5C6CCC5CN(c5cc(-c7ccccc7O)nnc5N)C6)ccn4)CC3)no2)C(C)C)cc1 [compound 129, (2S,4R)-1-((2R)-2-(3-(2-(4-(2-((4-(3-(3-amino-6-(2-hydroxyphenyl)pyridazin-4-yl)-3,8-diazabicyclo[3.2.1]octan-8-yl)pyridin-2-yl)oxy)ethyl)piperazin-1-yl)ethoxy)isoxazol-5-yl)-3-methylbutanoyl)-4-hydroxy-N-((R)-2-isobutoxy-1-(4-(4-methylthiazol-5-yl)phenyl)ethyl)pyrrolidine-2-carboxamide]
DC50 [1]: > 30 nM

Dmax [2]: > 75%
DC50 [3]: < 2.5 nM
SMILES: Cc1ncsc1-c1ccc([C@H](C)NC(=O)[C@@H]2C[C@@H](O)CN2C(=O)[C@@H](c2cc(OCCC3CCN(C[C@H]4C[C@H](N5CCC(C(C)n6cc(-c7cc(-c8ccccc8O)nnc7N)cn6)CC5)C4)CC3)no2)C(C)C)cc1 (stereo partly drawn) [compound 599, (2S,4R)-1-((2R)-2-(3-(2-(1-(((1r,3R)-3-(4-(1-(4-(3-amino-6-(2-hydroxyphenyl)pyridazin-4-yl)-1H-pyrazol-1-yl)ethyl)piperidin-1-yl)cyclobutyl)methyl)piperidin-4-yl)ethoxy)isoxazol-5-yl)-3-methylbutanoyl)-4-hydroxy-N-((S)-1-(4-(4-methylthiazol-5-yl)phenyl)ethyl)pyrrolidine-2-carboxamide]

SMILES: Cc1nccn1-c1ccc([C@H](C)NC(=O)[C@@H]2C[C@@H](O)CN2C(=O)[C@@H](c2cc(N3CCN(CCN4CCC(O[C@H]5C[C@H](Oc6cc(N7C8CCC7CN(c7cc(-c9ccccc9O)nnc7N)C8)ccn6)C5)CC4)CC3)no2)C(C)C)cc1 [compound 413, (2S,4R)-1-((2R)-2-(3-(4-(2-(4-((1r,3r)-3-((4-(3-(3-amino-6-(2-hydroxyphenyl)pyridazin-4-yl)-3,8-diazabicyclo[3.2.1]octan-8-yl)pyridin-2-yl)oxy)cyclobutoxy)piperidin-1-yl)ethyl)piperazin-1-yl)isoxazol-5-yl)-3-methylbutanoyl)-4-hydroxy-N-((S)-1-(4-(2-methyl-1H-imidazol-1-yl)phenyl)ethyl)pyrrolidine-2-carboxamide]
Dmax (SW1573, % degraded, when tested at the top concentration of between 0.3 and 10 μM, read-out: BRM Dmax (%)): > 75%
DC50 (degradation of BRM, read-out: BRM DC50): < 2.5 nM

SMILES: CC(C)[C@@H](C(=O)N1C[C@H](O)C[C@H]1C(=O)N[C@@H](C)c1ccc(-n2ccnc2CO)cc1)c1cc(OCC#Cc2ccc(O[C@H]3C[C@H](Oc4cc(N5C6CCC5CN(c5cc(-c7ccccc7O)nnc5N)C6)ccn4)C3)cn2)no1 [compound 285, (2S,4R)-1-((2R)-2-(3-((3-(5-((1r,3R)-3-((4-(3-(3-amino-6-(2-hydroxyphenyl)pyridazin-4-yl)-3,8-diazabicyclo[3.2.1]octan-8-yl)pyridin-2-yl)oxy)cyclobutoxy)pyridin-2-yl)prop-2-yn-1-yl)oxy)isoxazol-5-yl)-3-methylbutanoyl)-4-hydroxy-N-((S)-1-(4-(2-(hydroxymethyl)-1H-imidazol-1-yl)phenyl)ethyl)pyrrolidine-2-carboxamide]
DC50 [1]: < 2.5 nM
Dmax [4]: > 75%

SMILES: Cc1ncsc1-c1ccc([C@@H](NC(=O)[C@@H]2C[C@@H](O)CN2C(=O)[C@@H](c2cc(OCCN3CCN(CCOc4cc(N5C6CCC5CN(c5cc(-c7ccccc7O)nnc5N)C6)ccn4)CC3)no2)C(C)C)C(=O)N(C)c2ccccc2)cc1 [compound 259, (2S,4R)-1-((2R)-2-(3-(2-(4-(2-((4-(3-(3-amino-6-(2-hydroxyphenyl)pyridazin-4-yl)-3,8-diazabicyclo[3.2.1]octan-8-yl)pyridin-2-yl)oxy)ethyl)piperazin-1-yl)ethoxy)isoxazol-5-yl)-3-methylbutanoyl)-4-hydroxy-N-((R)-2-(methyl(phenyl)amino)-1-(4-(4-methylthiazol-5-yl)phenyl)-2-oxoethyl)pyrrolidine-2-carboxamide]
DC50 [1]: < 2.5 nM
Dmax [4]: > 75%

SMILES: Cc1ncsc1-c1ccc([C@H](CCCC(=O)O)NC(=O)[C@@H]2C[C@@H](O)CN2C(=O)C(c2cc(OCCN3CCC(O[C@H]4C[C@H](Oc5cc(N6C7CCC6CN(c6cc(-c8ccccc8O)nnc6N)C7)ccn5)C4)CC3)no2)C(C)C)cc1 (stereo partly drawn) [compound 687, (5S)-5-((2S,4R)-1-(2-(3-(2-(4-((1r,3r)-3-((4-(3-(3-amino-6-(2-hydroxyphenyl)pyridazin-4-yl)-3,8-diazabicyclo[3.2.1]octan-8-yl)pyridin-2-yl)oxy)cyclobutoxy)piperidin-1-yl)ethoxy)isoxazol-5-yl)-3-methylbutanoyl)-4-hydroxypyrrolidine-2-carboxamido)-5-(4-(4-methylthiazol-5-yl)phenyl)pentanoic acid]
DC50 [1]: > 30 nM

DC50 (BRM degradation, read-out: BRM DC50): > 30 nM
SMILES: Cc1cc([C@H](C(=O)N2C[C@H](O)C[C@H]2C(=O)N[C@@H](COCCOCCNc2ccc(-c3ccccc3O)nn2)c2ccc(-c3scnc3C)cc2)C(C)C)on1 [compound 526, (2S,4R)-4-hydroxy-N-((R)-2-(2-(2-((6-(2-hydroxyphenyl)pyridazin-3-yl)amino)ethoxy)ethoxy)-1-(4-(4-methylthiazol-5-yl)phenyl)ethyl)-1-((R)-3-methyl-2-(3-methylisoxazol-5-yl)butanoyl)pyrrolidine-2-carboxamide]
